SMILES strings stand for the structures.

The target of this experiment is Rho-associated protein kinase 2 (Homo sapiens, UniProt O75116). As to the kind of experiment: Inhibition of ROCK2 (unknown origin) using FITC-AHA-AKRRRLSSLRA-OH substrate and ATP.
Chain of Rho-associated protein kinase 2 (O75116 whole entry): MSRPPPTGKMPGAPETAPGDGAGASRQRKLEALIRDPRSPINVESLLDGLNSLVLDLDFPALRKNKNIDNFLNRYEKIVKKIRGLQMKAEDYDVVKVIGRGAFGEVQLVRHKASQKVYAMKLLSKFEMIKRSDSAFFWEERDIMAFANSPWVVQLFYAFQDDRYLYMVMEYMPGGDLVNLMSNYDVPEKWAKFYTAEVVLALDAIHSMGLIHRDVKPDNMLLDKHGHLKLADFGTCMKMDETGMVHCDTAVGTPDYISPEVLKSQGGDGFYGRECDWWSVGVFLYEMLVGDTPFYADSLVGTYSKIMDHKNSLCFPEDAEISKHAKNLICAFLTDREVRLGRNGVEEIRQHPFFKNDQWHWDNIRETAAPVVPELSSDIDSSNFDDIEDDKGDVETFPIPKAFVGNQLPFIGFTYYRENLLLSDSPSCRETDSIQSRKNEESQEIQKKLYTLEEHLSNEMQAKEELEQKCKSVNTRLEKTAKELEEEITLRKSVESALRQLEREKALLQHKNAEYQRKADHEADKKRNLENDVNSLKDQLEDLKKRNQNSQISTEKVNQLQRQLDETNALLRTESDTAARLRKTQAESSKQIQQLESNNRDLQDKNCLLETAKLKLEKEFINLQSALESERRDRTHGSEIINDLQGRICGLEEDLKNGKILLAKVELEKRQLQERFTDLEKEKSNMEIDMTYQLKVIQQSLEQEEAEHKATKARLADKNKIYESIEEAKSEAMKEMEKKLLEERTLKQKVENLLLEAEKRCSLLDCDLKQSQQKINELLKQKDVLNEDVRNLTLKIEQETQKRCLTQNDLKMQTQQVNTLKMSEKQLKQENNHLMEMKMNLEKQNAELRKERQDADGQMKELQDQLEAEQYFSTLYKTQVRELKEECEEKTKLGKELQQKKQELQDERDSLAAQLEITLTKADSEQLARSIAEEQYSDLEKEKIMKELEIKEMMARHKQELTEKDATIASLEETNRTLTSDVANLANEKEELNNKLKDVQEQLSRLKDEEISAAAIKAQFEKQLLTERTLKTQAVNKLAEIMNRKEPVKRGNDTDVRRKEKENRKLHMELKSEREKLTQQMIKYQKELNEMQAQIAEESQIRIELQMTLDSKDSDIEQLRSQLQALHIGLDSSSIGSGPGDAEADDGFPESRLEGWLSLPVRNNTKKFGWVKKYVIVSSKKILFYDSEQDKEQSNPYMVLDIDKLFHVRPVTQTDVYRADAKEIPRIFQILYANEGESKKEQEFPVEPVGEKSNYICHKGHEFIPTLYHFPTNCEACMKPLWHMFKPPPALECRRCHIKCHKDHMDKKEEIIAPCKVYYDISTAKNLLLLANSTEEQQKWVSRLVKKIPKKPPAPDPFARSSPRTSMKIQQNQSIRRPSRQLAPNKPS

`COc1cnc(NC2CC3(C2)CC(Oc2ncccc2C(N)=O)C3)c2cc(Cl)ccc12` (stereo not given): the 50% inhibitory concentration (IC50) is 15 nM. In other words, the double-digit nanomolar range.

`N#Cc1cnc(NC2CC3(C2)CC(Oc2ncccc2C(N)=O)C3)nc1` (stereo not given) gave an IC50 of 1510 nM.

In turn, `NC(=O)c1cccnc1OC1CC2(CC(Nc3nc4c(Cl)cccc4s3)C2)C1` (stereo not given) returned a 50% inhibitory concentration (IC50) of 76 nM. Compared with the last compound, the IC50 is about 20-fold lower.

`COc1ccc2ncnc(NC3CC4(C3)CC(Oc3ncccc3C(N)=O)C4)c2c1` (stereo not given) registered an IC50 of 62 nM.

In the case of `COc1ccc2c(NC3CC4(C3)CC(Oc3ncccc3C(N)=O)C4)nccc2c1` (stereo not given), the IC50 came to 17 nM.

Source of the values: ChEMBL document CHEMBL4433241, “Potential of ROCK Inhibitors as Treatment for Cardiovascular Diseases, Cancer, and More” (ACS Med Chem Lett, 2019).
